# “And” between values parts separate entries of the source, which are not always exact repeats. Equal values may be shown once. Where a name gives a salt, the structure may show the parent alone. Marks after values point to notes of the source that are not given here.
# Experiments:
# murine L 1210 leukemia [1] = details: in vivo, Dose 50 mg/kg; cited from earlier work
# [2] = test system: L1210 Murine leukemia cells; test: In vitro growth inhibition of L1210 murine leukemia cells (Coulter Counter); type: cell-based; details: Mus musculus, 72 hours of continuous exposure
# Experimental: The "in vitro" cytotoxic evaluation was also performed on L 1210 murine leukemia cells using the above mentioned cells maintained in suspension cultures (McCoy's 5A medium supplemented with 10% horse serum, glutamine, penicillin and streptomycin) grown in an humidified environment of 10% carbon dioxide and 90% air at 37°C. The compounds were dissolved in dimethylsulfoxide (DMSO) and added to the suspended cells in appropriate concentrations. After 72 hours of continuous exposure, the cell concentration was counted using a Coulter Counter and growth inhibition calculated using the formula: % growth inhibition = 1 - [cell number treated/cell number DMSO alone] x 100. [formula]
# The IC50 was calculated from the growth inhibition data and they are reported in table VII in comparison to the prior art compound 5a (see table I for structure of 5a).
# L1210 Murine leukemia cells were routinely maintained in suspension cultures in McCoy's 5A medium supplemented with 10% horse serum glutamine, penicillin and streptomycin and grown in a humidified environment of 10% carbon dioxide and 90% air at 37°C.
# To assess the in vitro toxicity, each compound was dissolved in dimethylsulfoxide and added to 1 ml of L1210 cells (10^5 cells/tube) to attain final concentrations of 0.01, 0.1 and 1 µg of drug/ml of culture. After 72 hours of continues exposure to the drug, the cell concentration was determined with a Coulter Counter. Growth inhibition was calculated for each drug using the following formula: % growth inhibition = 1-[cell number treated/cell number DMSO alone] x 100. [formula]
# The growth inhibition data was then used to calculate the IC50 value (the calculated drug concentration required to inhibit cell growth by 50% of control.
# L1210 murine leukemia [3] = test: In vivo L1210 murine leukemia (ip/ip, d 1, 5, 9), protocol a, 10^6 cells; set-up: species or system BDF1 mice; details: days 1, 5 and 9, ip; for %T/C: mean survival time; for LTS: tumor-free at 60 days
# Experimental: (§1) L 1210 leukemia cells were intraperitoneally (ip) injected in CDFl mice and treatment was initiated approximately 24 hours after tumor transplantation. Dosages of the drugs were administered ip according to preestablished protocols, usually at 4-day intervals. The studies were done over a 60-day period and the date of death for each animal was recorded. The % T/C was determined using the mean survival time (MST) for each group according to the formula % T/C = [(MST treated)/(MST control)] x 100 [formula]
# (§2) • a) L1210 murine leukemia cells were maintained in vivo by weekly intraperitoneal (ip) injections of 10^6 cells in BDF1 mice. For test purposes, mice were inoculated i.p. with 10^6 L1210 cells and treatment was initiated 24 hours later. The desired dose of drug was administered on days 1, 5 and 9. Mice were observed daily for signs of toxicity and survival. The date of death was recorded for each animal that died or was sacrificed during the 60-day study. The mean survival time (MST) for each treatment group was calculated and the % T/C was determined using the following formula: % T/C = [(MST treated)/(MST control)] x 100 [formula] The results are reported in table X • b) L1210 murine leukemia cells were maintained in vivo by weekly intraperitoneal (ip) injections of 10^5 cells in DBA2 mice. For test purposes, CDF1 mice were inoculated i.p. with 10^5 L1210 cells and treatment was initiated 24 hours later. The desired dose of drug was administered on days 1, 5 and 9. Mice were observed daily for signs of toxicity and survival. The date of death was recorded for each animal that died or was sacrificed during the 60-day study. The median survival time (MST) for each treatment group was calculated and the % T/C was determined using the following formula: % T/C = [(MST treated)/(MST control)] x 100 [formula]
# murine L 1210 leukemia [4] = details: in vitro, from J. Med. Chem. (1985), 28, 1124-1126; cited from earlier work
# [5] = test system: human colon adenocarcinoma cell line (Lovo); test: MTT cytotoxicity assay on human colon adenocarcinoma Lovo cells; type: cell-based; details: 144 h, read-out: IC50 µg/ml±S.D. LoVo
# Experimental: (§3) The evaluation of the "in vitro" cytotoxic activity of the compounds of the invention was performed using a human colon adenocarcinoma cell line (Lovo) isolated from a metastatic nodule and a subline with aquired resistance to a number of antitumor agents, among which doxorubicin, VP-16 and vincristine. […] The compounds were tested according to the MTT assay (Mosman, T., "Rapid Colorimetric assay for cellular growth and survival: application to proliferation and cytotoxicity assay", J. Immunol. Methods, (1983), 65, 55-63; Green, L.M., "Rapid colorimetric assay for cell viability; application to the quantitation of cytotoxic and growth inhibitory lymphokines", J. Immunol. Methods, (1984), 70, 257-268) in comparison with mitoxantrone, ametantrone and doxorubicin.
# (§4) In vitro biological evaluation: MTT assay on human colon adenocarcinoma Lovo cells.
# (§5) The MTT assay was performed according to Mosmann, T., J. Immunol. Methods, (1983), 65, 55-63 and Green, L. M., J. Immunol. Methods, (1984), 70, 257-268.
# (§6) Immediately before use, compounds and reference standards are dissolved in proper solvent and subsequently further diluted in complete culture medium. Human colon adenocarcinoma cells Lovo and the subline resistant to doxorubicin (Lovo/DX) (2.5. 10^4 cells/ml) are plated in 96-well plates and preincubated for 24 hours in culture medium. After this time, the cells are exposed to drugs for 144 hours, then the thiazolyl blue tetrazolium bromide solution (MTT solution) is added and the cells are reincubated for 4 hours. The supernatant is removed and 150 µl of dimethylsulfoxide are added to solubilize formazan crystals. The plate is read at 570 nm with microplate reader and the inhibiting concentration of 50% cellular growth (IC50; µg/ml) is calculated.
# Lovo/DX = test: MTT cytotoxicity assay on doxorubicin-resistant subline Lovo/DX; type: cell-based, human
# Experimental: as §3, §4, §5, §6
# P388 Murine Leukemia [6] = test: In vivo P388 murine leukemia (iv/iv, d 1, 4, 7); details: for T/C% (range): median survival time; for LTS: tumor free at 60 days
# Experimental: P388 Murine Leukemia cells were maintained in vivo by serial intraperitoneal (i.p.) injections of 10^6 cells in DBA2 mice. For test purposes, CDF1 mice were inoculated intravenously (i.v.) with 10^6 P388 cells and treatment was initiated 24 hr later. The i.v. dose of drug was administered on days 1, 4 and 7. Mice were observed daily for signs of toxicity and survival. The date of death was recorded for each animal that died or was sacrificed during the 60 day study. The median survival time (MST) for each treatment group was calculated and the % T/C was determined using the following formula: % T/C = [(MST treated)/(MST control)] x 100 [formula]
# L1210 murine leukemia [7] = test: In vivo ascitic L1210 murine leukemia (ip/ip, d 1, 5, 9), protocol b, 10^5 cells; set-up: species or system CDF1 mice; details: for %T/C: median survival time; for TOX: toxic deaths/total No. of mice; for LTS: tumor free at 60 days
# Experimental: as §1, with “Dosages” for “L 1210 leukemia cells were intraperitoneally (ip) injected in CDFl mice and treatment was initiated approximately 24 hours after tumor transplantation. Dosages”
# as §2, with “The mean survival time (MST) for each treatment group was calculated and the % T/C was determined using the following formula: % T/C = [(MST treated)/(MST control)] x 100 [formula] The results are reported in table X • b) L1210 murine leukemia cells were maintained in vivo by weekly intraperitoneal (ip) injections of 10^5 cells in DBA2 mice.” left out
# P388 Murine Leukemia [8] = test: In vivo ascitic P388 murine leukemia (ip/ip, d 1, 5, 9); set-up: species or system CDF1 mice; details: for % T/C (range): median survival time; for TOX: toxic deaths/total No. of mice
# Experimental: Treatment was initiated approximately 24 hours after tumor transplantation and dosages of the drug were administered ip (P388 ip/ip) or iv (P388 iv/iv) according to preestablished protocols, usually at 3-day (P388 iv/iv) or 4-day (P388 ip/ip) intervals. The studies were done over a 60-day period and the date of death for each animal was recorded. The % T/C was determined using the mean survival time (MST) for each group according to the formula % T/C = [(MST treated)/(MST control)] x 100 [formula]
# P388 Murine Leukemia cells were maintained in vivo by serial intraperitoneal (ip) injections of 10^6 cells in DBA2 mice. For test purposes, CDF1 mice were inoculated i.p. with 10^6 P388 cells and treatment was initiated 24 hours later. The i.p dose of drug was administered on days 1, 5 and 9. Mice were observed daily for signs of toxicity and survival. The date of death was recorded for each animal that died or was sacrificed during the 60-day study. The median survival time (MST) for each treatment group was calculated and the % T/C was determined using the following formula: % T/C = [(MST treated)/(MST control)] x 100 [formula]
structure (smiles),measurement,setting,value
"CN(C)CCNc1ccc(NCCN(C)C)c2c1C(=O)c1cccnc1C2=O [Compound 5a, 6,9-bis{[2-(dimethylamino)ethyl]amino}benzo[g]quinoline-5,10-dione, reference compound]",T/C,murine L 1210 leukemia [1],130
same,IC50,[2],0.155 µg/mL
same,%T/C,L1210 murine leukemia [3]; Dose 50 mg/kg,129%
same,ID50,murine L 1210 leukemia [4],0.16 µg/mL
"CN(C)CCNc1ccc(NCCN(C)C)c2c1C(=O)c1ccncc1C2=O [Compound 10a, 6,9-Bis{[2-(dimethylamino)ethyl]amino}benzo[g]isoquinoline-5,10-dione]",IC50,[5],0.045 µg/mL
same,IC50,"Lovo/DX; Homo sapiens, LoVo/DX, MTT assay, 144 hrs drug exposure, read-out: IC50 µg/ml±S.D. LoVo/Dx",0.085 µg/mL
same,R.I.,Lovo/DX; R.I. = (IC50 LoVo/Dx)/(IC50 LoVo),1.9
same,cross resistance with mitoxantrone and ametantrone,Lovo/DX; resistant subline Lovo/DX,no cross resistance
same,T/C% (range),"P388 Murine Leukemia [6]; 18 mg/kg/day iv days 1,4,7",172% and 156%
same,LTS,"P388 Murine Leukemia [6]; 18 mg/kg/day iv days 1,4,7",0/14
same,T/C% (range),"P388 Murine Leukemia [6]; 27 mg/kg/day iv days 1,4,7",188% and 167%
same,LTS,"P388 Murine Leukemia [6]; 27 mg/kg/day iv days 1,4,7",0/17
same,T/C% (range),"P388 Murine Leukemia [6]; 40 mg/kg/day iv days 1,4,7",183% and 156%
same,LTS,"P388 Murine Leukemia [6]; 40 mg/kg/day iv days 1,4,7",0/16
same,IC50,[2],0.006 µg/mL
same,%T/C,L1210 murine leukemia [3]; Dose 50 mg/kg,151%
"NCCNc1ccc(NCCN)c2c1C(=O)c1ccncc1C2=O [Compound 10i.HCl, 6,9-bis{[2-(amino)ethyl]amino}benzo[g]isoquinoline-5,10-dione]",%T/C,"L1210 murine leukemia [7]; 6.25 mg/kg/day ip days 1,5,9",156%
same,TOX,"L1210 murine leukemia [7]; 6.25 mg/kg/day ip days 1,5,9",0/8
same,LTS,"L1210 murine leukemia [7]; 6.25 mg/kg/day ip days 1,5,9",0/8
same,%T/C,"L1210 murine leukemia [7]; 12.5 mg/kg/day ip days 1,5,9",175%
same,TOX,"L1210 murine leukemia [7]; 12.5 mg/kg/day ip days 1,5,9",0/8
same,LTS,"L1210 murine leukemia [7]; 12.5 mg/kg/day ip days 1,5,9",1/8
same,%T/C,"L1210 murine leukemia [7]; 25 mg/kg/day ip days 1,5,9, value calculated on dead mice",250* %
same,TOX,"L1210 murine leukemia [7]; 25 mg/kg/day ip days 1,5,9",1/7
same,LTS,"L1210 murine leukemia [7]; 25 mg/kg/day ip days 1,5,9",4/7
same,IC50,[2],0.05 µg/mL
same,LTS (day 60),"P388 Murine Leukemia [8]; 3.1 mg/kg/day ip days 1,5,9",0/8
same,% T/C (range),"P388 Murine Leukemia [8]; 3.1 mg/kg/day ip days 1,5,9",144%
same,TOX,"P388 Murine Leukemia [8]; 3.1 mg/kg/day ip days 1,5,9",0/8
same,LTS (day 60),"P388 Murine Leukemia [8]; 6.25 mg/kg/day ip days 1,5,9",0/8
same,% T/C (range),"P388 Murine Leukemia [8]; 6.25 mg/kg/day ip days 1,5,9",196%
same,TOX,"P388 Murine Leukemia [8]; 6.25 mg/kg/day ip days 1,5,9",1/8
same,LTS (day 60),"P388 Murine Leukemia [8]; 12.5 mg/kg/day ip days 1,5,9",0/8
same,% T/C (range),"P388 Murine Leukemia [8]; 12.5 mg/kg/day ip days 1,5,9",239%
same,TOX,"P388 Murine Leukemia [8]; 12.5 mg/kg/day ip days 1,5,9",0/8
same,LTS (day 60),"P388 Murine Leukemia [8]; 25 mg/kg/day ip days 1,5,9",2/8
same,% T/C (range),"P388 Murine Leukemia [8]; 25 mg/kg/day ip days 1,5,9",367%
same,TOX,"P388 Murine Leukemia [8]; 25 mg/kg/day ip days 1,5,9",0/8
same,%T/C,L1210 murine leukemia [3]; Dose 12.5 mg/kg,265%
same,LTS,L1210 murine leukemia [3]; Dose 12.5 mg/kg,4/6
same,%T/C,L1210 murine leukemia [3]; Dose 25 mg/kg,265%
same,LTS,L1210 murine leukemia [3]; Dose 25 mg/kg,5/6
